The record followed here is ChEMBL document CHEMBL1146650, “1,7-annulated indolocarbazoles as cyclin-dependent kinase inhibitors” (Bioorg Med Chem Lett, 2004).

Molecules are shown by their SMILES.

The subject of one experiment is HCT-116. In words: Cytotoxic activity against human colon HCT116 cell line. The class given is functional, cell-based.
The target in experiment [1] is Cyclin-dependent kinase 2/cyclin E (Homo sapiens, UniProt P24941). In words: Inhibition of human Cyclin E-cyclin-dependent kinase 2. The class given is protein-complex assay.
Experiment [2] concerns the target Cyclin-dependent kinase 4/cyclin D1 (Homo sapiens, UniProt P11802). In words: Inhibitory activity against human Cyclin D1-cyclin-dependent kinase 4 activity. In kind it is protein-complex assay.
Experiment [3] deals with Cyclin-dependent kinase 2 (Homo sapiens, UniProt P24941). Briefly: Inhibition of Cyclin-dependent kinase 2.
Experiment [4] concerns the target Cyclin-dependent kinase 4 (Homo sapiens, UniProt P11802). In words: Inhibition of Cyclin-dependent kinase 4.

Chain of Cyclin-dependent kinase 4/cyclin D1 (P11802 whole entry): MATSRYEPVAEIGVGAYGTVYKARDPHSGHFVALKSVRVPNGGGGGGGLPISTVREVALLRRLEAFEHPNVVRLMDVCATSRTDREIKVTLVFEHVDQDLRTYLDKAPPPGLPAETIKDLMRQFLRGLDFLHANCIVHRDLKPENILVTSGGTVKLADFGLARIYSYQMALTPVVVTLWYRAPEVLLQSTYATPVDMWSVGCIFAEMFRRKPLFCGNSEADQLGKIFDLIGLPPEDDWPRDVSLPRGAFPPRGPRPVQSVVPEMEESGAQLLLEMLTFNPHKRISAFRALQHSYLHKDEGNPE
Chain of Cyclin-dependent kinase 4/cyclin D1 (P24385 whole entry, further chain): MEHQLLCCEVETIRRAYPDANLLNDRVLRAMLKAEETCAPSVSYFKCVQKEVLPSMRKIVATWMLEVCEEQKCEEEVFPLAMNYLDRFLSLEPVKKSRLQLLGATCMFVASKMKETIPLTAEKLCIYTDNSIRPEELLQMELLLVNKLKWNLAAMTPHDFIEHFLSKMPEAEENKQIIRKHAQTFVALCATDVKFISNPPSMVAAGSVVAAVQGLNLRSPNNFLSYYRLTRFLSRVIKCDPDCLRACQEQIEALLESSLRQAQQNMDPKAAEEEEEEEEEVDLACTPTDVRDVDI
Chain of Cyclin-dependent kinase 4 (P11802 whole entry): as the sequence (P11802 whole entry) above

Usually IC50 stands for the concentration that inhibits the measured activity by half. Higher therefore signals a need for much substance. Turning to `O=C1NC(=O)c2c1c1c3ccccc3[nH]c1c1c2c2cccc3c2n1CC3`, the half-inhibitory concentration (IC50) with HCT-116 was 1.02 µM; in experiment [1] it was above 2 µM; in experiment [2] it was 0.24 µM.

`O=C1NC(=O)c2c1c1c3ccc(Cl)cc3[nH]c1c1c2c2cccc3c2n1CCC3`: the IC50 was 0.78 µM with HCT-116, above 0.2 µM in experiment [1] and 0.11 µM in experiment [2].

Take `NCc1ccc2c(c1)[nH]c1c2c2c(c3c4cccc5c4n(c13)CCC5)C(=O)NC2=O`: the IC50 was 2.26 µM in the experiment on HCT-116 and 0.17 µM in experiment [2].

As for `O=C1NC(=O)c2c1c1c3ccccc3[nH]c1c1c2c2cccc3c2n1CCC3`, the results for the IC50 (with HCT-116; in experiment [1]; in experiment [2]) were 1.6 µM, above 1 µM and 0.11 µM, respectively.

Regarding `O=C1NC(=O)c2c1c1c3ccc(CN4CCCC4)cc3[nH]c1c1c2c2cccc3c2n1CCC3`, the IC50 in the experiment on HCT-116 was found to be 0.17 µM; in experiment [2], 0.05 µM.

In the case of `O=C1NC(=O)c2c1c1c3ccc(CO)cc3[nH]c1c1c2c2cccc3c2n1CCC3`, the IC50 in the experiment on HCT-116 came to 0.34 µM; in experiment [2], 0.052 µM.

For `O=C1NC(=O)c2c1c1c3cc(F)ccc3[nH]c1c1c2c2cccc3c2n1CCC3`, the concentration for half-maximal inhibition (IC50) in experiment [2] is above 2 µM.

On to `O=C1NC(=O)c2c1c1c3ccc(CN4CCC4)cc3[nH]c1c1c2c2cccc3c2n1CCC3`, for which the IC50 in the experiment on HCT-116 amounted to 0.23 µM; in experiment [2] it was 0.075 µM.

Consider `O=C1NC(=O)c2c1c1c3ccc(Br)cc3[nH]c1c1c2c2cccc3c2n1CCC3`, for which the half-inhibitory concentration (IC50) was found to be 2.3 µM in the experiment with HCT-116, 1 µM in experiment [1] and 0.09 µM in experiment [2].

On to `O=C1NC(=O)c2c1c1c3ccc(F)cc3[nH]c1c1c2c2cccc3c2n1CCC3`, for which the IC50 in the experiment on HCT-116 was 2.37 µM; in experiment [1], above 0.2 µM; in experiment [2], 0.42 µM.

In experiment [2], `O=C1NC(=O)c2c1c1c3cc(Br)ccc3[nH]c1c1c2c2cccc3c2n1CCC3` registered a half-maximal inhibitory concentration (IC50) above 2 µM.

Take `O=C1NC(=O)c2c1c1c([nH]c3cccc(F)c31)c1c2c2cccc3c2n1CCC3`: the IC50 in experiment [2] was above 2 µM.

With `O=C1NC(=O)c2c1c1c3ccc(-c4cccnc4)cc3[nH]c1c1c2c2cccc3c2n1CCC3`, the IC50 came to 1.13 µM with HCT-116 and 0.16 µM in experiment [2].

On to `O=C1NC(=O)c2c1c1c3ccc(C(F)(F)F)cc3[nH]c1c1c2c2cccc3c2n1CCC3`, for which the half-inhibitory concentration (IC50) was 1.48 µM in the experiment with HCT-116, above 2 µM in experiment [1] and 0.29 µM in experiment [2].

As for `O=C1NC(=O)c2c1c1c3ccc(CN4CCSCC4)cc3[nH]c1c1c2c2cccc3c2n1CCC3`, the figures for the IC50 (with HCT-116; in experiment [2]) were 0.6 µM and 0.09 µM, respectively.

`O=C1NC(=O)c2c1c1c3ccccc3[nH]c1c1c2c2cccc3c2n1CCCC3`: the figures for the half-maximal inhibitory concentration (IC50) (with HCT-116; in experiment [1]; in experiment [2]) were 5.16 µM, 1 µM and 0.094 µM, respectively.

As for `O=C1NC(=O)c2c1c1c3ccc(CN4CCOCC4)cc3[nH]c1c1c2c2cccc3c2n1CCC3`, the 50% inhibitory concentration (IC50) was 0.37 µM in the experiment with HCT-116 and 0.075 µM in experiment [2].

With `O=C1NC(=O)c2c1c1c3ccc(CN4CCCNCC4)cc3[nH]c1c1c2c2cccc3c2n1CCC3`, the 50% inhibitory concentration (IC50) amounted to 7.6 µM with HCT-116 and 0.079 µM in experiment [2].

Take `COC(=O)c1ccc2[nH]c3c(c4c(c5c6cccc7c6n(c35)CCC7)C(=O)NC4=O)c2c1`: in experiment [2], the 50% inhibitory concentration (IC50) was above 2 µM.

For the compound `O=C1NC(=O)c2c1c1c3ccc(CN4CCNCC4)cc3[nH]c1c1c2c2cccc3c2n1CCC3`, the results for the IC50 (in the experiment with HCT-116; in experiment [2]) were above 10 µM and 0.065 µM, respectively.

The compound `O=C1NC(=O)c2c1c1c3cc(F)c(F)cc3[nH]c1c1c2c2cccc3c2n1CCC3` had a concentration for half-maximal inhibition (IC50) in experiment [2] above 2 µM.

In the case of `O=C1NC(=O)c2c1c1c3ccccc3[nH]c1c1c2c2cccc3c2n1CCCCC3`, the concentration for half-maximal inhibition (IC50) is 1.25 µM in the experiment on HCT-116, above 2 µM in experiment [1] and 0.12 µM in experiment [2].

Consider `O=C1NC(=O)c2c1c1c3ccc(-c4ccncc4)cc3[nH]c1c1c2c2cccc3c2n1CCC3`, for which the 50% inhibitory concentration (IC50) with HCT-116 amounted to 3.29 µM; in experiment [2], 0.59 µM.

In the case of `COC(=O)c1ccc2c(c1)[nH]c1c2c2c(c3c4cccc5c4n(c13)CCC5)C(=O)NC2=O`, the IC50 in experiment [2] is above 2 µM.

On to `O=C1NC(=O)c2c1c1c3ccccc3n3c1c1c2c2ccccc2n1[C@H]1CC[C@@H]3O1`, for which the half-inhibitory concentration (IC50) in experiment [3] was determined as 0.54 µM; in experiment [4] it was 0.68 µM.

Consider `O=C1NC(=O)c2c1c1c3ccc(CN4CCCCC4)cc3[nH]c1c1c2c2cccc3c2n1CCC3`, for which the IC50 in the experiment with HCT-116 is 0.32 µM; in experiment [2], 0.087 µM.
